From paper PMC6021345 (Oncotarget, 2018)
Values belong to the compound of their own block, whether it stands above or below them.

Tests used:
CES2 = target: T1, CES2 (Homo sapiens, UniProt O00748); assay: In vitro CES2 enzyme-based assay (4-NPA substrate); type: biochemical
T1 construct: purchased Sigma-Aldrich E0412
T1 sequence (O00748 27-559): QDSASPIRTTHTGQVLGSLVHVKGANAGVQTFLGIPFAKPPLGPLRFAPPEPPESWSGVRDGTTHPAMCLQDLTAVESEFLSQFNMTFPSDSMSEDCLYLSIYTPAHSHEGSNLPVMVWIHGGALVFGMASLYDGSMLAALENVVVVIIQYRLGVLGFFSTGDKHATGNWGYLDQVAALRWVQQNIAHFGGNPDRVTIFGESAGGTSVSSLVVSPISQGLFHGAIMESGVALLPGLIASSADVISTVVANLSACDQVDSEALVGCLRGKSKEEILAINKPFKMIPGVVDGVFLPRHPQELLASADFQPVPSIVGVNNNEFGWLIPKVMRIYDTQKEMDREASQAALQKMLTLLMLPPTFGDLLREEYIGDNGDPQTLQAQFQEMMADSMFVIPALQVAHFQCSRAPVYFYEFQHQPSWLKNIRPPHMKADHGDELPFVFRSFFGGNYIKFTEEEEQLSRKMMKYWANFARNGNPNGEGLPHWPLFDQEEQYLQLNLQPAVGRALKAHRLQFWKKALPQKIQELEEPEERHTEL
Description: (§1) The recombinant purified CES2 and CES1 enzymes, and 4-NPA were purchased from Sigma-Aldrich with product IDs E0412, E0162, and N8130, respectively. […] All compounds were dissolved in DMSO at 10mM. In the screening assay, the compounds were diluted in 50mM HEPES and the final compound concentration in the reaction system was adjusted to 50μM. […] The assays were conducted at 300μl total volume in 96-well plates. Reactions consisted of the following: 100μL 50mM HEPES with 20 units of enzyme, 10μL compound solution (various concentrations), 2μL 300mM 4-NAP, and 188μL 50mM HEPES, pH 7.4. The compound and 4-NAP solution were added into the plate first and then the reaction was initiated by the addition of enzyme solution. After 15 minutes incubation at 25°C, absorbance was measured using a microplate reader at 405nm in FLUOstar Omega Microplate Reader. The CES1/CES2 inhibitor compound bis-(4-nitrophenyl) phosphate (BNPP) was used as positive control in all the assays.

CES1 = target: T2, CES1 (Homo sapiens, UniProt P23141); assay: In vitro CES1 enzyme-based assay (4-NPA substrate); type: biochemical; conditions: even at 300μM
T2 construct: purchased Sigma-Aldrich E0162
T2 sequence (P23141 18-567): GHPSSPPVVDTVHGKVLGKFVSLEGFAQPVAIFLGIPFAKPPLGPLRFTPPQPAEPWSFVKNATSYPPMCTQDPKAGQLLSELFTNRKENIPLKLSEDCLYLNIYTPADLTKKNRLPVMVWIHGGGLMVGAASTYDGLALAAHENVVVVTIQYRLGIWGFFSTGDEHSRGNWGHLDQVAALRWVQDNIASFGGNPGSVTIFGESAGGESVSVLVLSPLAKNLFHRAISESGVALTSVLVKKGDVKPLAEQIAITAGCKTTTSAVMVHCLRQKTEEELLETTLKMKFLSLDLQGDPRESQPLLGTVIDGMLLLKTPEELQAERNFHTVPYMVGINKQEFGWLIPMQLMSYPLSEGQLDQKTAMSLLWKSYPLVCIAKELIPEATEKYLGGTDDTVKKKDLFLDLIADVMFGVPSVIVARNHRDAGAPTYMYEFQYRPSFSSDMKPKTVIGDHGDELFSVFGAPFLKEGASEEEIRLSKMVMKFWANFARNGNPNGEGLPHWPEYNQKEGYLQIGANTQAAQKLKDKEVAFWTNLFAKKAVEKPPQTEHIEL
Description: as §1

[1] = system: murine CT-26 tumor-bearing immuno-competent mice; assay: CPT-11 induced diarrhea in CT-26 tumor-bearing mice; type: in vivo; conditions: for mice that had to be euthanized: by day 12; for mice with rapid recovery in body weight: 5 days after cessation of CPT-11; for mice that never showed any signs of diarrhea: through end of study
Description: We tested the effect of Hst (20 and 100 mg/kg) on murine CT-26 tumor-bearing immuno-competent mice with CPT-11 (50 mg/kg, roughly equivalent to 5 mg/kg typical human CPT-11 dose) intraperitoneally injected daily from day 1-9. Hst was given from day 1-15 and 30 min before CPT-11 administration on day 1-9. Changes of stool character were recorded twice daily to determine the severity of diarrhea. Fecal staining of skin or lose watery stool was determined as diarrhea but not severe, and only the black sticky stool (bloody diarrhea) was determined as severe diarrhea.
(§2) CT-26 cell line was used to make the tumor bearing mouse model by s.c. injection of 0.02mL cells in PBS at 5×10^7 cells/mL into the posterior mid-dorsum. Tumor volumes were estimated by the formula π/6×a^2×b, where a is the short and b is the long axis. When tumor volume reached roughly 100mm^3 (~10 days after implantation, defined as day 1), mice were randomly separated into 5 groups, 1). CPT-11 only group, receiving CPT-11 50mg/kg + vehicle 2). CPT-11+Hst 20mg/kg, 3). CPT-11+Hst 100mg/kg, 4). Hst 100mg/kg only, and 5) vehicle control group. CPT-11 was administrated by i.p. injection from day 1 to day 9 while Hst were administrated by oral gavage from day 1 to the end of study. An equivalent dosage of saline or CMC were administrated by i.p injection and oral gavage as vehicle, respectively. Mice were examined daily for signs of diarrhea (fecal staining of skin, lose watery stool) and bloody diarrhea (black sticky stool), as well as tumor growth. After sacrifice, jejunum, ileum and colon samples were dissected. Tissues were formalin-fixed and paraffin embedded for histological examination using 4μm-thick, 100μm step serial sections stained with H&E. A histologic score to evaluate inflammation, epithelial changes and mucosa architecture for each slide was calculated as described previously. For immunohistochemical staining, sections were stained with antibodies against Ki67, β-catenin, F4/80, Ly-6B.2 and pSTAT3 (Tyr705) overnight at 4°C. Slides were then washed and stained with the appropriate secondary antibodies. Mounted slides were examined under Olympus BX61 upright microscopy (HMRI Advanced Cellular and Tissue Microscope Core Facility).

[2] = parameters: method as in PMID 10725311; conditions: after i.v. dosing radiolabeled drug; cited from earlier work
[3] = parameters: method as in printed; conditions: library annotation; ref not given; cited from earlier work
liver CES = assay: Ex vivo liver CES assay (microsomes) after oral Hst; type: in vivo, mice; conditions: 20 mg/kg Hst oral
Description: (§3) Single oral dose of 135 mg Hst in healthy adult subjects was rapidly absorbed and the concentration in plasma observed 20 min after dosing and reached a peak in 4h.
(§4) Microsomes of the liver and small intestinal epithelium were prepared from animals with or without Hst treatment. Animals were killed by exsanguination at 4h after single oral dosing of Hst. Their liver and small intestines were removed immediately and cooled in cold physiological saline. Small intestine epithelium was scraped from the intestine with slide glass. Tissues were homogenized in 1.15% KCl on ice by a Teflon homogenizer, followed by centrifugation at 9,000×g for 10min at 4°C. The supernatant was re-centrifuged at 105,000×g for 60 min at 4°C, resulting in sedimentation of the microsome. The microsomal pellet was re-suspended in 1.15% KCl. To measure CES activity, microsomes (protein content: 1 mg/mL) were incubated with 4-NAP solution in phosphate-buffered saline at 37°C, and 50μL aliquots were sampled up to 20 min.

small intestinal CES = assay: Ex vivo small intestinal CES assay (microsomes) after oral Hst; type: in vivo, mice; conditions: 20 mg/kg Hst oral, 4h after single dose, n=5
Description: as §3, §4

intestinal inflammation = assay: Intestinal inflammation in CPT-11 treated mice; type: in vivo
Description: as §2, with “For immunohistochemical staining, sections were stained with antibodies against Ki67, β-catenin, F4/80, Ly-6B.2 and pSTAT3 (Tyr705) overnight at 4°C. Slides were then washed and stained with the appropriate secondary antibodies. Mounted slides were examined under Olympus BX61 upright microscopy (HMRI Advanced Cellular and Tissue Microscope Core Facility).” left out

[4] = single oral dose of 135 mg Hst, healthy adult subjects, cited from earlier work
[5] = system: different cancer cell lines including CT-26; assay: Cell viability analysis on cancer cell lines; type: cell-based; conditions: Hst alone
Description: (§5) CT-26 (murine colon cancer), HCT-116 (human colon cancer), CRL-1739 (human stomach gastric cancer) and CRL-1682 (human pancreatic cancer) cell lines were purchased form ATCC. All cells were cultured in T-75 flasks (Falcon). All media were purchased from Life Technologies and supplemented with 10% fetal bovine serum (Sigma) and 1% penicillin-streptomycin (Fisher Scientific). CT-26 and CRL-1682 were cultured in RPMI-1640 medium. CRL-1739 and HCT-116 were cultured in DMEM medium. All cells were cultured in a 37° C, 5% CO2 incubator.

STAT3 = STAT3 Cignal Reporter Assay; type: cell-based; conditions: HEK293 cells, Hst 24h, IL-6 100 ng/ml 90 min
Description: STAT3 transcription factor activity was measured using the Cignal STAT3 Reporter Assay Kit (Qiagen) according to the manufacturers’ instructions. HEK293 cells were transfected with the Renilla luciferase reporter plasmid. Twenty-four hours later, cells were treated with Hst for 24h, and were incubated with 100 ng/ml IL-6 for 90 min before lysed. Subsequently, Renilla luciferase activity was measured in a microplate reader. Relative transcription factor activity was calculated by dividing relative light units (RLU) of the STAT3-specific reporter and the negative control reporter.

CT-26 tumor = assay: Tumor growth in CT-26 tumor-bearing mice; type: in vivo
Description: as §2, with “For immunohistochemical staining, sections were stained with antibodies against Ki67, β-catenin, F4/80, Ly-6B.2 and pSTAT3 (Tyr705) overnight at 4°C. Slides were then washed and stained with the appropriate secondary antibodies. Mounted slides were examined under Olympus BX61 upright microscopy (HMRI Advanced Cellular and Tissue Microscope Core Facility).” left out

p-STAT3 = assay: Immunohistochemistry of p-STAT3 in mouse tumors; type: in vivo, mice; conditions: CPT-11 + Hst
Description: as §2, with “For immunohistochemical staining, sections were stained with antibodies against Ki67, β-catenin, F4/80, Ly-6B.2 and pSTAT3 (Tyr705) overnight at 4°C. Slides were then washed and stained with the appropriate secondary antibodies. Mounted slides were examined under Olympus BX61 upright microscopy (HMRI Advanced Cellular and Tissue Microscope Core Facility).” left out

p-STAT3 (Tyr705) = assay: Western blot of IL-6 induced p-STAT3 (Tyr705) in cancer cell lines; type: cell-based; conditions: various cancer cell lines, IL-6 100ng/ml 90 min
Description: as §5
RIPA buffer was purchased form Fisher Scientific. Xpert protease inhibitor cocktail solution 100X and Xpert phosphatase inhibitor cocktail solution 100X were purchased from GenDEPOT. 4–20% Mini-PROTEAN® TGX™ Gel and Trans-Blot® Turbo™ Mini Nitrocellulose Transfer Packs were purchased form Bio-Rad. Rabbit NF-κB and phospho-Stat3 (Tyr705) primary antibody, mouse β-Actin (8H10D10) primary antibody, and anti-mouse IgG HRP conjugated, anti-rabbit IgG HRP conjugated secondary antibody were purchased from Cell Signaling Technology.

[6] = parameters: method as in printed; conditions: ref not given; cited from earlier work
[7] = parameters: method as in printed; conditions: high dose loperamide; ref not given; cited from earlier work

- selectivity for CES2 (over CES1) (CES2; CES2 vs CES1): > 100 fold
- IC50 (CES2; recombinant CES2, 4-NPA, 15 min, 25°C): 1660 ± 690 nM
- CES1 inhibition (CES1): no significant CES1 inhibition
Structure (SMILES): O=C(/C=C/c1ccccc1)c1ccc(O)cc1O [2’, 4’-dihydroxychalcone]

Structure (SMILES): CCc1c2c(nc3ccc(OC(=O)N4CCC(N5CCCCC5)CC4)cc13)-c1cc3c(c(=O)n1C2)COC(=O)[C@]3(O)CC [CPT-11, irinotecan]
- mice that had to be euthanized ([1]; CPT-11 only group): all
- mice that developed some degree of diarrhea ([1]; mouse, in vivo, 15 day): 100%
- fraction found unchanged in human bile [2]: 30%

Structure (SMILES): CC1(C)CCC2=C(O1)c1ccccc1C(=O)C2=O [compound 1004, beta-Lapachone]
- solubility remark [3]: poorly soluble, anti-tumor at mM level, combination and radiosensitizing activity

Structure (SMILES): COc1ccc([C@@H]2CC(=O)c3c(O)cc(O)cc3O2)cc1O [hesperetin]
- liver CES activity (liver CES; 4h after single dose, n=5): 8.89±0.74 nmol/min/g protein
- change of liver CES activity (liver CES; vs control): did not have an obvious change
- mice with severe diarrhea ([1]; CPT-11 + Hst 20 mg/kg oral, day 11): 2 out of 10
- mice with rapid recovery in body weight ([1]; CPT-11 + Hst 20 mg/kg): 20%
- mice that had to be euthanized ([1]; CPT-11 + Hst 20 mg/kg): 40%
- body weight lost on average ([1]; CPT-11 + Hst 20 mg/kg, day 11): 20%
- mice that never showed any signs of diarrhea ([1]; CPT-11 + Hst 20 mg/kg): 20%
- mice with severe diarrhea ([1]; CPT-11 + Hst 100 mg/kg oral, until day 12): 2 out of 10
- mice with rapid recovery in body weight ([1]; CPT-11 + Hst 100 mg/kg): 20%
- mice that had to be euthanized ([1]; CPT-11 + Hst 100 mg/kg): 20%
- body weight lost on average ([1]; CPT-11 + Hst 100 mg/kg, day 11): 17%
- mice that never showed any signs of diarrhea ([1]; CPT-11 + Hst 100 mg/kg): 30%
- severe diarrhea prohibited ([1]; oral Hst, CPT-11 administered tumor-bearing mice): 80%
- small intestinal CES activity (small intestinal CES): 2.28±1.42 nmol/min/g protein
- reduction of small intestinal CES activity (small intestinal CES; vs control): 56%
- infiltration of inflammatory cells (neutrophils, macrophages) and cytokine release (TNF-α, IL-6) (intestinal inflammation; dose dependent): blocked
- tissue expression of NF-κB (intestinal inflammation; mouse small intestine): significantly down-regulated
- time after dosing at which concentration in plasma was observed [4]: 20 min
- time to peak plasma concentration [4]: 4 h
- Cmax ([4]; read-out: mean peak plasma concentration (Cmax)): 2730 ± 1350 nM
- cytotoxicity in vitro [5]: did not show any potent cytotoxicity effects
- concentration inhibiting IL-6 induced STAT3 reporter activity (STAT3): 20 to 100 µM
- effect on in vivo antitumor activity of CPT-11 (CT-26 tumor; Hst 20 and 100 mg/kg + CPT-11, starting 5-6 days after Hst treatment): enhanced the in vivo antitumor activity of CPT-11
- tumor growth, Hst alone (CT-26 tumor; Hst alone 100 mg/kg): mild inhibition on tumor growth
- p-STAT3 expression in the tumors (p-STAT3): remarkably suppressed
- IL-6 induced p-STAT3 (Tyr705) expression (p-STAT3 (Tyr705)): significant down-regulation
- CES1 inhibition (CES1): no significant CES1 inhibition

Structure (SMILES): COc1ccc([C@@H]2CC(=O)c3c(O)cc(O[C@@H]4O[C@H](CO[C@@H]5O[C@@H](C)[C@H](O)[C@@H](O)[C@H]5O)[C@@H](O)[C@H](O)[C@H]4O)cc3O2)cc1O [hesperidin]
- fraction metabolized in cells to generate Hst [6]: 99%

Structure (SMILES): CN(C)C(=O)C(CCN1CCC(O)(c2ccc(Cl)cc2)CC1)(c1ccccc1)c1ccccc1 [loperamide]
- incidence of grade 3-4 diarrheas [7]: 28-40 % of treated patients
